Like-named read-outs stand apart in the source and are kept apart here.
How the values were obtained:
[1] = Plasma and urine pharmacokinetics in patients (LC-MS/MS, non-compartmental); format: in vivo, human; conditions: for mean ratio of AUC0 − last (accumulation): RP2D level DL 2.1, 200 mg BID; for Tmax: po, all dose levels; for CL renal: urine, urine 0 to 12 h, cycle 1 day 1
Protocol: Blood samples for PK analysis were collected in cycle 1, on days 1, 4 and 18 pre-dose and at 0.5, 1, 2, 3, 5, 8, and 12 h post-dose. Urine samples were collected on day 1 of cycle 1 before dosing and from 0 to 12 h after dosing. Plasma and urine concentrations of TAS-119 were determined by validated liquid chromatography–tandem mass spectrometry method. PK parameters included the peak plasma concentration (Cmax), time to reach maximum concentration in plasma (Tmax), area under the plasma concentration–time curve up to the last observable concentration (AUC0 − last) and up to infinity (AUC0 − inf), terminal phase elimination half-life (T1/2), clearance (CL/F), apparent volume of distribution (Vd/F), renal clearance (CLr) and oral clearance (CL/F).
The influence of polymorphisms of SLCO1B1 encoding the drug influx transporter OATP1B1 was examined in a blood sample obtained pre-dose on day 1 of cycle 1 for all patients during the dose escalation part. MYC amplification and β-catenin mutation were assessed in archival formalin-fixed paraffin-embedded tumour samples obtained after enrolment of the patient into the study.
Descriptive statistics were used to summarise safety data (AEs, vital signs and clinical laboratory results) overall response based on RECIST, PK and PD data. PK parameters were calculated by standard non-compartmental methods using Phoenix^TMWinNonlin® (Ver 6.3 or later, Certara L.P.). Dose proportionality of TAS-119 was evaluated with a power model and a linear regression model using logarithmic values of PK parameters such as Cmax and AUCs, as well as a one-way analysis of variance (ANOVA) using dose-normalised parameters such as Cmax, AUCs, CL/F, and apparent volume of distribution (Vd/F). Student’s t test was used to test statistical significance of the PD data and calculate the mean ratio for AUC0 − last at RP2D or MTD. Influence of SLCO1B1 genotypes on PK parameters was tested by ANOVA.

[2] = tested on: ROS; parameters: method as in doi:10.1016/S0959-8049(14)70524-6; conditions: pre-clinical data; cited from earlier work
[3] = in vivo; cited from earlier work
[4] = tested on: AurB; parameters: method as in doi:10.1016/S0959-8049(14)70524-6; conditions: pre-clinical data; cited from earlier work
[5] = tested on: AurA; parameters: method as in doi:10.1016/S0959-8049(14)70524-6; conditions: pre-clinical data; cited from earlier work
[6] = tested on: TRK-A; parameters: method as in doi:10.1016/S0959-8049(14)70524-6; conditions: pre-clinical data; cited from earlier work
[7] = tested on: advanced solid tumours; assay: Antitumour activity by RECIST v1.1; format: in vivo, human
Protocol: Adverse events (AEs) at baseline and during the study were recorded and graded based on the Common Terminology Criteria for Adverse Events v4.03. Tumour measurements were done at the end of every second cycle or as per the Institutional standard of care in case of clinical indications. Response were assessed using Response Evaluation Criteria in Solid Tumours (RECIST) v1.1.[19]
Planned enrolment in the dose escalation part included 18–30 evaluable patients, with 3–6 DLT evaluable patients in each DL. To further assess the feasibility as well as preliminarily efficacy of the RP2D, approximately 40 patients were planned to be enrolled into the expansion part (approximately 10–15 patients in each of the expansion cohorts). An additional 20 patients were pre-planned to be enrolled in an extension of the expansion part provided that either an overall response rate (ORR) of ≥20% for each specific indication or ≥10% for patients with MYC-amplified or β-catenin-mutated tumours had been observed.

[8] = tested on: cancer cells with MYC oncogene amplifications and/or mutations in the Wnt/β-catenin pathway; parameters: method as in PMID 22222631, doi:10.15761/IMM.1000162; conditions: cited from earlier work
[9] = tested on: TRK-C; parameters: method as in doi:10.1016/S0959-8049(14)70524-6; conditions: pre-clinical data; cited from earlier work
[10] = tested on: BORA, SGOL2, KIF20A and DEPDC-1; assay: mRNA expression of mitosis genes by RT-PCR in tissue samples; format: in vivo, human; conditions: 32 patients from the dose escalation part
Protocol: (§1) Blood and tissue samples were taken for PD on-target effects during mitosis of TAS-119. First, the rate of phosphorylated histone H3 (pHH3) immunohistochemistry-positive cells to total cells were measured in paired skin biopsies and paired tumour samples collected prior to first TAS-119 administration as well as after receiving TAS-119 on day 4 of cycle 1. In case of target engagement, an increase in pHH3 is expected because of cells that will stagnate in mitosis. Second, pre- and post-dose mRNA expression of genes involved in mitosis, BORA, SGOL2, KIF20A and DEPDC-1, was analysed in tissue samples by reverse transcriptase-polymerase chain reaction.

[11] = tested on: RET; parameters: method as in doi:10.1016/S0959-8049(14)70524-6; conditions: pre-clinical data; cited from earlier work
[12] = tested on: TRK-B; parameters: method as in doi:10.1016/S0959-8049(14)70524-6; conditions: pre-clinical data; cited from earlier work
[13] = cited from earlier work
[14] = tested on: phosphorylated histone H3 (pHH3); assay: pHH3 immunohistochemistry in paired skin biopsies and paired tumour samples; format: in vivo, human
Protocol: as §1

[15] = tested on: AurC; parameters: method as in doi:10.1016/S0959-8049(14)70524-6; conditions: pre-clinical data; cited from earlier work

Cc1cc(Nc2nc(CC3(C(=O)O)CCN(C(=O)c4cccc(Cl)c4Cl)CC3)ccc2F)n[nH]1 [TAS-119]
increase of plasma exposure with dose ([1]; 70–300 mg BID, power model, linear model and one-way ANOVA): dose-proportional
CL/F and Vd/F among SLCO1B1 polymorphism-caused phenotypes (normal/intermediate/low) ([1]; ANOVA): no statistical differences
mean ratio of AUC0 − last (accumulation) ([1]; day 4): 1.3
mean ratio of AUC0 − last (accumulation) ([1]; day 18): 1.2
ratio of AUC0 − last (accumulation) ([1]; continuous 200 mg BID schedule (DL 2.1), day 18): 1.1
accumulation ratios throughout all DLs ([1]; human, in vivo): low
half-life ([1]; human, plasma, oral, blood concentrations, across dose levels): 168 to 360 min
Tmax ([1]; human, plasma, plasma, oral, read-out: Tmax range): 0.5 to 2 h
Tmax ([1]; human, plasma, plasma, oral, read-out: median Tmax): 1.2 h
CL renal ([1]; human, oral, read-out: CLr (renal clearance), median (converted)): 4.17 mL/min
CL renal ([1]; human, oral, read-out: CLr (renal clearance), range): 2.5 to 5.17 mL/min
oral clearance (CL/F), median ([1]; plasma): 9.79 L/h
oral clearance (CL/F), range ([1]; plasma): 2.72 to 13.94 L/h
IC50 [2]: 29.3 ± 0.8 nM
severely toxic dose in 10% of exposed animals (STD10) [3]: 63 mg/kg BID
IC50 [4]: 95 nM
IC50 [5]: 1.04 nM
IC50 [6]: 1.46 ± 0.16 nM
patients with stable disease as best response ([7]; DL 2 (150 mg BID)): 6 patients
patients with stable disease as best response ([7]; DL 2.1 (200 mg BID continuous schedule)): 4 patients
patients with stable disease as best response ([7]; DL 2.1 (200 mg BID)): 4 patients
complete or partial response ([7]; dose escalation part): no complete response (CR) or partial response (PR)
stable disease as best response ([7]; dose escalation part, fourteen patients): 41%
patients with unconfirmed PR ([7]; epithelial mesothelioma, DL 2 (150 mg BID), at cycle 4): One
target ORR of 20% (or ≥10% for MYC amplification or β-catenin mutation) ([7]; expansion part): not met
complete or partial response ([7]; expansion part, 200 mg BID): no confirmed CR or PR
patients with stable disease ([7]; expansion part, MYC-amp/B-cat mutation-positive tumours): 5 patients
patients with stable disease ([7]; expansion part, SCLC): 5 patients
patients with stable disease ([7]; expansion part, basket cohort (1 mesothelioma, 1 colorectal cancer)): 2 patients
patients with stable disease ([7]; expansion part, breast cancer): 1 patients
growth inhibitory effects on cancer cells with MYC amplifications and/or Wnt/β-catenin pathway mutations [8]: more potent growth inhibitory effects
IC50 [9]: 1.47 ± 0.04 nM
mRNA expression level of mitosis genes after dosing [10]: no significant increase
IC50 [11]: 25.8 ± 1.5 nM
IC50 [12]: 1.53 ± 0.12 nM
microscopic findings in pre-clinical high-dose toxicity study ([13]; animals, considerable individual variation): degeneration and regeneration or hyperplasia of epithelial tissue
vomiting and liquid faeces, cyclic administration versus daily administration ([13]; cyclic administration 4 days on/3 days off, pre-clinical): less frequent vomiting and liquid faeces
microscopic findings in pre-clinical high-dose toxicity study, eyes ([13]; only in dogs): involvement of the epithelium of the eyes
mean pHH3-positive rate in skin samples after administration ([14]; 55 paired samples, pre-dose versus day 4 of cycle 1, p value <0.0001): increased
mean pHH3 rate in paired tumour samples ([14]; eight paired tumour samples): did not significantly change
IC50 [15]: 36.5 nM

From publication PMC7852567, “A first-in-human phase 1 and pharmacological study of TAS-119, a novel selective Aurora A kinase inhibitor in patients with advanced solid tumours” (British Journal of Cancer, 2020)
